Laboratory results reported in patent US5607966A, “Esters and amides of non-steroidal anti-inflammatory carboxylic acids which may be used as anti-oxidants, 5-lipoxygenase inhibitors and non-steroidal anti-inflammatory prodrugs” (Alcon Laboratories, Inc., priority 1994, dated 1997).
pIC50: −log10 of the molar value. One block for each molecule: values may come before it.

Experiments:
[1] = phospholipid oxidation assay (conjugate diene formation in liposomes, Fe+3/EDTA and ascorbate); type: biochemical; conditions: Fe+3/EDTA (167 μM) and ascorbate (167 μM), one hour
Protocol: Antioxidant activity was measured using a phospholipid oxidation assay. Liposomes were formed from dilineoleolylphosphocholine and the test compound. Free radical damage was induced by exposure to Fe^+3 /EDTA (167 micromolar [μM]) and ascorbate (167 μM). Oxidation was terminated after one hour by freezing in liquid nitrogen. Lyophilized samples were then dissolved in methanol or water. Oxidation was measured by conjugate diene formation, monitored using UV spectroscopy as described in Biochimica et Biophyica Acta, volume 1081, 181-187, (1991). The IC50 was calculated using the following non-linear regression algorithm: Y=A/[1+(B/X)^c ], wherein A=maximum, B=IC^50 and c=cooperativity or relative broadness of the curves. The minimum was assumed to be zero.

bovine retinal pieces = test: inhibition of lipid peroxide formation (TBARS) in bovine retinal pieces after hypoxia/reoxygenation; type: cell-based; conditions: hypoxia 1 hour, reoxygenated for 1 hour, agent added after 50 minutes of hypoxia
Protocol: The cytoprotective effects of the compounds were measured using bovine retinal pieces. Retinal tissues were incubated in hypoxic media for 1 hour. After 50 minutes of hypoxia, test agents were added to the media to allow 10 minutes for the drug to diffuse into the tissue prior to reoxygenation. The vehicle by itself, was added to the non-drug group. Following the incubation period, tissue was reoxygenated for 1 hour. Lipid peroxidation was assessed by the formation of thiobarbituric acid reacting substances (TBARS). The tissues were homogenized and added to the trichloroacetic acid-thiobarbituric acid reagent and heated in the presence of BHT. The homogenate was filtered and the absorbance of the supernant was measured spectrophotometrically. A double derivative technique was used to calculate the concentration of TBARS present in each sample. Quantitation was based on a molar extinction coefficient of 1.56×10^5.

5-lipoxygenase = molecular target: T1, 5-lipoxygenase (Oryctolagus cuniculus, UniProt G1SNX0); test: 5-lipoxygenase inhibition (5-HETE and LTB4 formation) in A23187-stimulated rabbit neutrophils; type: cell-based, rabbit (New Zealand Albino); conditions: A23187 5.0 μM, arachidonic acid 52 μM, 3 minutes at 37° C.
T1 construct: neutrophils isolated from rabbit peripheral blood; endogenous in cells; host or cells: neutrophils from peripheral blood of New Zealand Albino rabbits
T1 sequence (G1SNX0 1-674): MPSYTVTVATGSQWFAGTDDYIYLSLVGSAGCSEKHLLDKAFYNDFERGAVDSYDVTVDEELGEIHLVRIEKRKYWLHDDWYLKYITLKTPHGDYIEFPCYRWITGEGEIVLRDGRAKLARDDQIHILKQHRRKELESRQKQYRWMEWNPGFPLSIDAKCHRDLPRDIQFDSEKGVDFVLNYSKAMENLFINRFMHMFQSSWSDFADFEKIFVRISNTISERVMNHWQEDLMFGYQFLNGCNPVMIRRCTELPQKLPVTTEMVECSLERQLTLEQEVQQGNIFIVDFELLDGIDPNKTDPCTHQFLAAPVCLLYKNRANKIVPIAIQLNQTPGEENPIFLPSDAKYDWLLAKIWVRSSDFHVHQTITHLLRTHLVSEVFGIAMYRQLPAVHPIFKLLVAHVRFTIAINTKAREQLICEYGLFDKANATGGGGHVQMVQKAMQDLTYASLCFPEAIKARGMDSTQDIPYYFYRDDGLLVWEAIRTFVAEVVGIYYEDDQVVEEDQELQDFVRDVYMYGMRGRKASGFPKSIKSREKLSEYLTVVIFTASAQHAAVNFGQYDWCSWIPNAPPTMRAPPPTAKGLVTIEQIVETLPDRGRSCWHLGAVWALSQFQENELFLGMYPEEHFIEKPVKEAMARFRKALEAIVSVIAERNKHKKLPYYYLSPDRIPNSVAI
Protocol: The 5-lipoxygenase inhibitor activity was determined by measuring the inhibition of 5-HETE and LTB4 formation. The ability of a compound to suppress 5-HETE and LTB4 formation was investigated in calcium ionophore (A23187)-stimulated neutrophils isolated from rabbit peripheral blood. Neutrophils were isolated by standard procedures. Briefly, heparinized/calcium chelated blood was obtained from New Zealand Albino (NZA) rabbits by heart puncture. Red cells were removed at 4° C. by dextran sedimentation,as described in Blood, volume 11, 436 (1956). White cells, contained in the supernatant fraction, were sedimented by centrifugation and contaminating red cells removed by hypotonic lysis. The white cell pellet obtained, following red cell lysis and centrifugation, was resuspended in Dulbecco's PBS (Ca^2+ /Mg^2+ -free) and layered onto a 60% Histopaque-1083®/40% Histopaque-1119® cushion (Sigma Chemical, St. Louis, Mo., U.S.A.). The Histopaque® cushion was then centrifuged, and the resulting neutrophil pellet was washed and resuspended in 1/25 of the original blood volume. Aliquots of the cell suspension were pretreated for 5 minutes at 37° C. with carrier (DMSO) or test article dissolved in DMSO. CaCl2 was immediately added to the cell suspension and cells stimulated by addition of 5 microliters [μl] of a mixture containing [1-^14 C]-arachidonic acid and A23187 in DMSO. […]

[2] = test system: endotoxin-induced uveitis in female Lewis rats (neutrophil influx into ocular tissue); test: endotoxin-induced uveitis model, neutrophil influx (MPO activity) into the eye after topical administration; type: in vivo, rat (female Lewis); conditions: for % Inhibition of Influx: topical 5 μl to each eye, 24 hours post endotoxin; for inhibition of neutrophil influx into the rat eye (in words): endotoxin induced uveitis, following topical administration
Protocol: The topical ophthalmic activity of representative compounds of the present invention, as compared with dexamethasone, is shown in Table 5 below. The compounds were evaluated in an endotoxin-induced uveitis model. This subacute model of ocular inflammation is characterized by the infiltration of neutrophils into the ocular tissue following administration of an endotoxin.
Ocular inflammation in female Lewis rats was initiated by hindpaw injection of 0.1 milliliters [ml] sterile saline (0.9% NaCl, weight:volume [w:v]) containing […] bacterial endotoxin (LPS; Escherichia coli 055:B5). Test compound or vehicle (carbopol/maxidex), 5 μl, was administered topically to each eye of the experimental animal 20 and 24 hours prior to endotoxin injection, immediately before endotoxin injection, and 4 and 20 hours after endotoxin injection. Twenty-four hours post endotoxin injection, animals were sacrificed by CO2 inhalation, and total ocular polymorphonuclear neutrophil (PMN) content was assessed indirectly by determination of myleoperoxide activity (MPO).
Ocular tissues were prepared for the quantification of neutrophil content as follows: Eyes were homogenized in 2.5 ml of ice-cold 50 mM phosphate/10mM N-ethylmaleimide buffer. The Brinkman homogenation probe was rinsed three (3) times with 2.5 ml of the same buffer and the probe washings were combined with the initial tissue homogenate. The homogenate was centrifuged for 30 minutes at 12,000×gravitational constant [g] at 4° C. The supernatant was discarded and the proteinaceous pellet was solubilized on 0.5 ml of ice-cold 0.5% hexadecyltrimethyl ammonium bromide (HTABr)/50 mM phosphate buffer (pH 6.0). The detergent-treated pellet homogenate was centrifuged at 4° C. for 30 minutes at 12,000×g and the supernatant collected and assayed for MPO activity in a buffer containing 50 mM phosphate/250 mM HTABr/250 μM hydrogen peroxide and 1.5 mM o-dianisidine (pH 6.0). o-Dianisidine oxidation was monitored spectrophotometrically at a wavelength of 460 nanometers [nm].

Molecule: COc1ccc2cc(C(C)C(=O)OCCC3(C)CCc4c(C)c(O)c(C)c(C)c4O3)ccc2c1 (stereo not drawn) [Compound D, 2-(6-hydroxy-2,5,7,8-tetramethyl-3,4-dihydro-2H-benzo[1,2-b]pyran-2yl)ethyl 2-(6-methoxy-2-naphthyl)propionate]
pIC50 [1]: 5.65
pIC50 (bovine retinal pieces; Bos taurus): 8.22
pIC50 (5-lipoxygenase): 6.00
% Inhibition of Influx ([2]; concentration 1.0%): 40%
inhibition of neutrophil influx into the rat eye (in words) [2]: significantly inhibited neutrophil influx

Molecule: COc1ccc2cc(C(C)C(=O)OCC3(C)CCc4c(C)c(O)c(C)c(C)c4O3)ccc2c1 (stereo not drawn) [Compound B, 2-(6-hydroxy-2,5,7,8-tetramethyl-3,4-dihydro-2H-benzo[1,2-b]pyran-2-yl)methyl 2-(6-methoxy-2-naphthyl)propionate]
pIC50 [1]: 5.94

Molecule: C[C@@H]1C[C@H]2[C@@H]3CCC4=CC(=O)C=C[C@]4(C)[C@@]3(F)[C@@H](O)C[C@]2(C)[C@@]1(O)C(=O)CO [Dexamethasone, reference compound]
% Inhibition of Influx ([2]; concentration 0.1%): 93%

Molecule: COc1ccc2cc(C(C)C(=O)N(C)CC(O)c3ccc(O)c(O)c3)ccc2c1 (stereo not drawn) [Compound A, N-(2-(3,4-dihydroxyphenyl)-2-hydroxyethyl)-N-methyl 2-(6-methoxy-2-naphthyl)propionamide]
pIC50 (bovine retinal pieces; Bos taurus): 6.82
pIC50 (5-lipoxygenase): 5.40
% Inhibition of Influx ([2]; concentration 0.1%): 40%
inhibition of neutrophil influx into the rat eye (in words) [2]: significantly inhibited neutrophil influx

Continued, values first:

pIC50 (bovine retinal pieces; Bos taurus): 8.00
Molecule: COc1ccc2cc(C(C)C(=O)OCC3(C)Cc4c(C)c(O)c(C)c(C)c4O3)ccc2c1 (stereo not drawn) [Compound E, 2-(5-hydroxy-2,4,6,7-tetramethyl-2,3-dihydro-benzo[1,2-b]furan-2-yl)methyl2-(6-methoxy-2-naphthyl)propionate]

pIC50 [1]: 5.35
pIC50 (bovine retinal pieces): 5.30
Molecule: Vitamin E [reference compound]

pIC50 [1]: 5.59
Molecule: COc1ccc2cc(C(C)C(=O)OCCC3(C)Cc4c(C)c(O)c(C)c(C)c4O3)ccc2c1 (stereo not drawn) [Compound F, 2-(5-hydroxy-2,4,6,7-tetramethyl-2,3-dihydro-benzo[1,2-b]furan-2-yl)ethyl 2-(6-methoxy-2-naphthyl)propionate]
